Measured values from patent US6737383B1, “Herbicidal oxadiazolidines” (priority 1999, dated 2004).

Assays:
[1] = tested on: wild oat; experiment: Test B pre/postemergence wild oat; format: in vivo, Avena fatua
In short: (§1)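 Test chemicals in a non-phytotoxic solvent mixture with surfactant were sprayed preemergence onto planted seeds and postemergence onto plants 2 to 18 cm tall (1- to 4-leaf stage). After twelve to sixteen days in a greenhouse, injury was visually rated against untreated controls from 0 (no effect) to 10 (complete control).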

[2] = tested on: bedstraw; experiment: Test B pre/postemergence bedstraw; format: in vivo, Galium aparine
In short: as §1

[3] = tested on: wheat; experiment: Test B pre/postemergence wheat; format: in vivo, Triticum aestivum
In short: as §1

[4] = tested on: corn; experiment: Test B pre/postemergence corn; format: in vivo, Zea mays
In short: as §1

[5] = tested on: smallflower flatsedge; experiment: Test B flood test smallflower flatsedge; format: in vivo, Cyperus difformis
In short: (§2)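 Read-out is a visual response score from 0 (no effect) to 10 (complete control), assigned by comparison with untreated controls. Treatment was applied at the 2-leaf stage, and plants stayed in the greenhouse for twelve to sixteen days before scoring.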

[6] = tested on: sugar beet; experiment: Test B pre/postemergence sugar beet; format: in vivo, Beta vulgaris
In short: as §1

[7] = tested on: blackgrass; experiment: Test B pre/postemergence blackgrass; format: in vivo, Alopecurus myosuroides
In short: as §1

[8] = tested on: purple nutsedge; experiment: Test B pre/postemergence purple nutsedge; format: in vivo, Cyperus rotundus
In short: as §1

[9] = tested on: crabgrass; experiment: Test B pre/postemergence crabgrass; format: in vivo, Digitaria sanguinalis
In short: as §1

[10] = tested on: soybean; experiment: Test B pre/postemergence soybean; format: in vivo, Glycine max
In short: as §1

[11] = tested on: velvetleaf; experiment: Test B pre/postemergence velvetleaf; format: in vivo, Abutilon theophrasti
In short: as §1

[12] = tested on: surinam grass; experiment: Test B pre/postemergence surinam grass; format: in vivo, Brachiaria decumbens
In short: as §1

[13] = tested on: pigweed; experiment: Test B pre/postemergence pigweed; format: in vivo, Amaranthus retroflexus
In short: as §1

[14] = tested on: cocklebur; experiment: Test B pre/postemergence cocklebur; format: in vivo, Xanthium strumarium
In short: as §1

[15] = tested on: rape; experiment: Test B pre/postemergence rape; format: in vivo, Brassica napus
In short: as §1

[16] = tested on: bamyardgrass; experiment: Test B flood test barnyardgrass; format: in vivo, Echinochloa crus-galli
In short: as §2

[17] = Postemergence, Rate 62 g/ha, scale 0 to 10, 0 is no effect, 10 is complete control
[18] = Postemergence, Rate 250 g/ha, scale 0 to 10, 0 no effect, 10 complete control
[19] = Preemergence, Rate 62 g/ha, scale 0 to 10 (0 no effect, 10 complete control)
[20] = Preemergence, Rate 125 g/ha, scale 0 to 10 (0 no effect, 10 complete control)
[21] = Preemergence, Rate 250 g/ha, scale of 0 to 10 where 0 is no effect and 10 is complete control
[22] = Preemergence, Rate 500 g/ha, scale 0 (no effect) to 10 (complete control)
[23] = Rate 125 g/ha, Postemergence, scale 0 to 10, 0 no effect, 10 complete control
[24] = Rate 500 g/ha, Postemergence, scale 0 to 10, 0 no effect, 10 complete control
[25] = Rate 125 g/ha, Postemergence section (flood test species), scale 0 to 10, 0 no effect, 10 complete control
[26] = Rate 500 g/ha, listed under Postemergence (flood test species), scale 0 to 10, 0 no effect, 10 complete control
[27] = flood test, listed under Postemergence, Rate 250 g/ha, scale 0 to 10, 0 no effect, 10 complete control

Cc1ccccc1-n1c(=O)on(C(=O)N(c2cc(F)ccc2F)C(C)C)c1=O [Compound 68]
3: Sugarbeets plant response rating [6, 24] | Plant response rating, Crabgrass [9, 20] | Soybean plant response rating [10, 18] | Soybean plant response rating [10, 24] | Velvetleaf plant response rating [11, 24] | Plant response rating, B. signalgrass [12, 20]
6: Rape plant response rating [15, 22]
1: Soybean plant response rating [10, 17]
8: B. signalgrass plant response rating [12, 22]
7: Bedstraw plant response rating [2, 18] | Bedstraw plant response rating [2, 23] | Plant response rating, Redroot pigweed [13, 21]
2: Plant response rating, Wild oats [1, 21] | Wild oats plant response rating [1, 22] | Blackgrass plant response rating [7, 18] | Plant response rating, Blackgrass [7, 20] | Plant response rating, Blackgrass [7, 21] | Blackgrass plant response rating [7, 24] | Crabgrass plant response rating [9, 19] | Soybean plant response rating [10, 23] | Velvetleaf plant response rating [11, 18] | Plant response rating, Redroot pigweed [13, 20] | Cocklebur plant response rating [14, 18] | Cocklebur plant response rating [14, 24] | Plant response rating, Rape [15, 21]
4: Bedstraw plant response rating [2, 17] | Plant response rating, Bedstraw [2, 21] | Bedstraw plant response rating [2, 22] | Blackgrass plant response rating [7, 22] | Plant response rating, B. signalgrass [12, 21]
10: Plant response rating, Nutsedge [8, 21] | Nutsedge plant response rating [8, 22] | Plant response rating, Crabgrass [9, 21] | Crabgrass plant response rating [9, 22] | Redroot pigweed plant response rating [13, 22]
0: Wild oats plant response rating [1, 17] | Wild oats plant response rating [1, 18] | Wild oats plant response rating [1, 19] | Plant response rating, Wild oats [1, 20] | Wild oats plant response rating [1, 23] | Wild oats plant response rating [1, 24] | Bedstraw plant response rating [2, 19] | Plant response rating, Bedstraw [2, 20] | Wheat plant response rating [3, 17] | Wheat plant response rating [3, 18] | Wheat plant response rating [3, 19] | Plant response rating, Wheat [3, 20] | Plant response rating, Wheat [3, 21] | Wheat plant response rating [3, 22] | Wheat plant response rating [3, 23] | Wheat plant response rating [3, 24] | Corn plant response rating [4, 17] | Corn plant response rating [4, 18] | Corn plant response rating [4, 19] | Plant response rating, Corn [4, 20] | Plant response rating, Corn [4, 21] | Corn plant response rating [4, 22] | Corn plant response rating [4, 23] | Corn plant response rating [4, 24] | S. Flatsedge plant response rating [5, 17] | S. Flatsedge plant response rating [5, 25] | S. Flatsedge plant response rating [5, 26] | S. Flatsedge plant response rating [5, 27] | Sugarbeets plant response rating [6, 17] | Sugarbeets plant response rating [6, 18] | Sugarbeets plant response rating [6, 19] | Plant response rating, Sugarbeets [6, 20] | Plant response rating, Sugarbeets [6, 21] | Sugarbeets plant response rating [6, 22] | Sugarbeets plant response rating [6, 23] | Blackgrass plant response rating [7, 17] | Blackgrass plant response rating [7, 19] | Blackgrass plant response rating [7, 23] | Nutsedge plant response rating [8, 17] | Nutsedge plant response rating [8, 18] | Plant response rating, Nutsedge [8, 20] | Nutsedge plant response rating [8, 23] | Nutsedge plant response rating [8, 24] | Crabgrass plant response rating [9, 17] | Crabgrass plant response rating [9, 18] | Crabgrass plant response rating [9, 23] | Crabgrass plant response rating [9, 24] | Soybean plant response rating [10, 19] | Plant response rating, Soybean [10, 20] | Plant response rating, Soybean [10, 21] | Soybean plant response rating [10, 22] | Velvetleaf plant response rating [11, 17] | Velvetleaf plant response rating [11, 19] | Plant response rating, Velvetleaf [11, 20] | Plant response rating, Velvetleaf [11, 21] | Velvetleaf plant response rating [11, 22] | Velvetleaf plant response rating [11, 23] | B. signalgrass plant response rating [12, 17] | B. signalgrass plant response rating [12, 18] | B. signalgrass plant response rating [12, 19] | B. signalgrass plant response rating [12, 23] | B. signalgrass plant response rating ([12]; Rate 500 g/ha, Postemergence, scale of 0 to 10 where 0 is no effect and 10 is complete control) | Redroot pigweed plant response rating [13, 17] | Redroot pigweed plant response rating [13, 18] | Redroot pigweed plant response rating [13, 19] | Redroot pigweed plant response rating [13, 23] | Redroot pigweed plant response rating [13, 24] | Cocklebur plant response rating [14, 17] | Cocklebur plant response rating [14, 19] | Plant response rating, Cocklebur [14, 20] | Plant response rating, Cocklebur [14, 21] | Cocklebur plant response rating [14, 22] | Cocklebur plant response rating [14, 23] | Rape plant response rating [15, 17] | Rape plant response rating [15, 18] | Rape plant response rating [15, 19] | Plant response rating, Rape [15, 20] | Rape plant response rating [15, 23] | Rape plant response rating [15, 24] | Barnyardgrass plant response rating [16, 17] | Barnyardgrass plant response rating [16, 25] | Barnyardgrass plant response rating [16, 26] | Barnyardgrass plant response rating [16, 27]
